In patent US10458996B1, “Methods for determining clinical response to TNF-alpha and/or JAK inhibitors in subjects with inflammatory diseases” (Beth Israel Deaconess Medical Center, Inc., priority 2016, dated 2019):

Legend:
[1] = test system: patients with moderate-to-severe CD; details: week 24 of intervention; cited from earlier work
[2] = test system: biopsy samples from patients with IBD; assay: Cytokine profiles of patient biopsy cultures in response to treatment with various agents (Example 2); format: cell-based, human
Procedure: From each patient, intestinal mucosal biopsies were minced into several pieces and distributed in 8 wells of a 96-well plate in 250 μl of Dulbecco's Modified Eagle Medium (DMEM) supplemented with 10% FBS and antibiotic-antimycotic (Life Technologies, CA). Half of the cultures were treated with infliximab (REMICADE®; 0.5 mg/ml; Janssen Biotech, Inc, NJ) and the plate was incubated at 37° C. in a humidified chamber of 95% O2/5% CO2 for 18 hours. Culture supernatants were collected, filtered and stored at −80° C. […] Signal detection and analysis was performed by MAGPIX® (Luminex Corporation, TX).
[…] with 0.5 mg/ml infliximab (an anti-TNFα antibody; therapeutic agent), 100 μM tofacitinib (a Janus kinase (JAK) inhibitor) and an experimental drug (at 10 μM concentration) in accordance with the protocol described above. Following treatment, biopsy samples were obtained and analyzed for cytokine profiles using […].
Additional similar experiments were conducted for different patients using the same or different therapeutic agents, and the results are shown in FIG. 5D-5H.

Molecule: Cn1cnc([N+](=O)[O-])c1Sc1ncnc2nc[nH]c12 [azathioprine]
- Mucosal healing rates [1]: 16.5%

Molecule: C[C@@H]1CCN(C(=O)CC#N)C[C@@H]1N(C)c1ncnc2[nH]ccc12 [tofacitinib]
- cytokines with levels significantly elevated ([2]; 100 μM, non-responder group (FIG. 5B)): IL-12p40, IL-12p70, IL-13, IL-17A, IL-2, IL-4, IL-5, and IL-7
- cytokines with attenuation in levels ([2]; 100 μM, non-responders (FIG. 5B)): MCP-1 and TNFα
- cytokines with levels significantly attenuated ([2]; 100 μM, responders (FIG. 5B)): IL-6, IL-8, MCP-1, and TNFα
- changes in cytokine profile ([2]; patient ID 13-394 (FIG. 5E)): three cytokine expression down-regulation
- ex vivo response of patient ([2]; patient ID 13-394 (FIG. 5E)): ex vivo responder

Molecule: vedolizumab
- changes in cytokine profile ([2]; patient ID 13-562 (FIG. 5F)): only one cytokine expression down-regulation and four cytokine expression up-regulation
- ex vivo response of patient ([2]; patient ID 13-562 (FIG. 5F)): ex vivo non-responder
